Laboratory results as given in PMC12471299, “Secondary Metabolites of the Marine Sponge-Derived Fungus Aspergillus subramanianii 1901NT-1.40.2 and Their Antimicrobial and Anticancer Activities” (Marine Drugs, 2025).
Values after ≈ are worked out from the molar mass of the structure shown. Like-named read-outs stand apart in the source and are kept apart here. Values belong to the molecule of their own block, whether it stands above or below them.

How the values were obtained:
[1] = test system: Escherichia coli VKPM (B-7935); assay: Biofilm formation assay (MTT); assay type: cell-based; details: for Biofilm formation, MIC50: E. coli, 18 h
Method: (§1) The Gram-positive bacterial Staphylococcus aureus ATCC 21027, Gram-negative bacterial Escherichia coli VKPM (B-7935), and yeast-like fungal Candida albicans KMM 455 strains were fermented on solid medium Mueller Hinton broth with agar (16.0 g/L) in a Petri dish at 37 °C for 24 h. The antimicrobial activity of the compound was tested at concentrations ranging from 100 µM and lower. The effect of the compound on bacterial growth was estimated as described by. Gentamicin and amphotericin B were used as positive controls against S. aureus, E. coli, and C. albicans, and a 1% dimethyl sulfoxide (DMSO) solution in PBS was used as a negative control. The optical density of the bacterial suspension after 18 h was measured at λ = 620 nm. The effect of the compound on biofilm formation for 18 h was tested using MTT reagent (Sigma-Aldrich, St. Louis, MO, USA) in accordance with. The optical density of the obtained solution was measured at λ = 570 nm. A Multiskan FS spectrophotometer (Thermo Scientific Inc., Beverly, MA, USA) was used for both assays. The results were calculated as percentages of the control data and presented as minimal concentrations reduced by 50% of growth or biofilm formation (MIC50).

[2] = test system: Staphylococcus aureus ATCC 21027; assay: Biofilm formation assay (MTT); assay type: cell-based; details: for Biofilm formation, MIC50: S. aureus, 18 h
Method: as §1

Candida albicans KMM 455 [3] = assay: Biofilm formation assay (MTT); assay type: cell-based
Method: as §1

H9c2 cardiomyocytes = assay: Cell viability assay (MTT); assay type: cell-based, rat
From the text: (§2) Rat cardiomyocyte H9c2 cells were kindly provided by Prof. Dr. Gunhild von Amsberg from the Martini-Klinik Prostate Cancer Center, University Hospital Hamburg-Eppendorf, Hamburg, Germany. The human HaCaT keratinocyte cell line was kindly provided by Prof. N. Fusenig (Cancer Research Centre, Heidelberg, Germany). Non-cancerous human breast epithelial MCF-10A cells were kindly provided by Dr. Irina Zhitnyak (N. N. Blokhin National Medical Research Center of Oncology, Moscow, Russia). Human breast cancer MCF-7 HTB-22 and MDA-MB-231 cells were obtained from the ATTC (Manassas, VA, USA).
(§3) H9c2 and HaCaT cells were cultured in DMEM with 10% fetal bovine serum and 1% penicillin/streptomycin (BioloT, St. Petersburg, Russia). MCF-7 and MDA-MB-231 cells were cultured in MEM (BioloT, St. Petersburg, Russia) with 10% fetal bovine serum (FBS) and 1% penicillin/streptomycin (BioloT, St. Petersburg, Russia). MCF 10A cells were cultured in DMEM F12 medium (BioloT, St. Petersburg, Russia) supplemented with 20% FBS, 20 ng/mL hrEGF (Sci-Store, Moscow, Russia), and 1% penicillin/streptomycin (BioloT, St. Petersburg, Russia). All cells were cultured at 37 °C in a humidified atmosphere containing 5% CO2.
(§4) H9c2 cells were seeded at a concentration of 3 × 10^3 cells/well. MCF-10A, MCF-7, and MDA-MB-231 cells were seeded at 5 × 10^3 cells/well, and HaCaT cells were seeded at 1 × 10^4 cells/well. The experiments were initiated after 24 h.
(§5) Compounds at concentrations up to 100 µM were added to the wells for 24h or 48 h, and the viability of the cells was measured using an MTT (3-(4,5-dimethylthiazol-2-yl)-2,5-diphenyltetrazolium bromide) assay, which was performed according to the manufacturer’s instructions (Sigma-Aldrich, Munich, Germany). […] DMSO was used as a control. The results are presented as percentages of the control data.

[4] = Cell viability assay (MTT); assay type: cell-based, rat; details: rat, H9c2 cardiomyocytes, read-out: Cytotoxicity IC50
From the text: as §2, §3, §4, §5

[5] = test system: Escherichia coli VKPM (B-7935); assay: Antimicrobial assay, growth inhibition (optical density); assay type: cell-based; details: for MIC50: Escherichia coli, 18 h, E. coli
Method: as §1

[6] = test system: Staphylococcus aureus ATCC 21027; assay: as above; assay type: cell-based; details: for MIC50: Staphylococcus aureus, ATCC21027, 18 h, S. aureus, 18 h
Method: as §1

Candida albicans KMM 455 [7] = assay: as above; assay type: cell-based
Method: as §1

[8] = test system: MCF-7 breast cancer cells; assay: Cell viability assay (MTT); assay type: cell-based, human
From the text: as §2, §3, §4, §5

HaCaT keratinocytes = assay: Cell viability assay (MTT); assay type: cell-based, human
From the text: as §2, §3, §4, §5

[9] = test system: MCF-10A breast epithelial cells; assay: Cell viability assay (MTT); assay type: cell-based, human; details: MCF10A
From the text: as §2, §3, §4, §5

[10] = test system: MDA-MB-231 breast cancer cells; assay: Cell viability assay (MTT); assay type: cell-based, human
From the text: as §2, §3, §4, §5

[11] = Cell viability assay (MTT); assay type: cell-based, human; details: human, read-out: Cytotoxicity IC50
From the text: as §2, §3, §4, §5

Biofilm formation, MIC50 [1]: >100 µM | Biofilm formation, MIC50 [2]: >100 µM | Biofilm formation, MIC50 (Candida albicans KMM 455 [3]; C. albicans, 18 h): >100 µM | MIC50 [5]: > 100 µM | MIC50 [6]: > 100 µM | MIC50 (Candida albicans KMM 455 [7]; Candida albicans, KMM455, 18 h, C. albicans, 18 h): > 100 µM
Structure (SMILES): Cc1c(C)c(O)c2c(c1C)C(C)C(=O)OC2=O (centres unmarked) [Compound 4, sclerin]
effect on E. coli biofilm formation ([1]; at / up to 100 µM): did not affect | effect on S. aureus biofilm formation ([2]; at / up to 100 µM): did not affect | prevention of C. albicans biofilm formation (Candida albicans KMM 455 [3]; at 100 µM): 20.22 ± 5.24% | cell viability (H9c2 cardiomyocytes; H9c2, 24 h, 1.0 µM): 101.9 ± 5.8 % of control | cell viability (H9c2 cardiomyocytes; H9c2, 24 h, 10.0 µM): 101.9 ± 6.1 % of control | cell viability (H9c2 cardiomyocytes; H9c2, 24 h, 100.0 µM): 73.5 ± 4.4 % of control | cell viability (H9c2 cardiomyocytes; H9c2, 48 h, 1.0 µM): 101.4 ± 5.6 % of control | cell viability (H9c2 cardiomyocytes; H9c2, 48 h, 10.0 µM): 102.6 ± 7.4 % of control | cell viability (H9c2 cardiomyocytes; H9c2, 48 h, 100.0 µM): 56.2 ± 0.9 % of control | IC50 at 24 h ([4]; H9c2, 24 h): > 100 µM | IC50 at 48 h ([4]; H9c2, 48 h): 57.2 ± 2.4 µM | effect on E. coli growth ([5]; at / up to 100 µM): did not affect | effect on S. aureus growth ([6]; at / up to 100 µM): did not affect | effect on C. albicans growth (Candida albicans KMM 455 [7]; at / up to 100 µM): did not affect | cell viability ([8]; MCF-7, 24 h, 1.0 µM): 104.3 ± 4.6 % of control | cell viability ([8]; MCF-7, 24 h, 10.0 µM): 103.4 ± 5.4 % of control | cell viability ([8]; MCF-7, 24 h, 100.0 µM): 68.3 ± 4.5 % of control | cell viability ([8]; MCF-7, 48 h, 1.0 µM): 88.5 ± 4.7 % of control | cell viability ([8]; MCF-7, 48 h, 10.0 µM): 95.9 ± 3.5 % of control | cell viability ([8]; MCF-7, 48 h, 100.0 µM): 74.1 ± 4.5 % of control | cell viability (HaCaT keratinocytes; 24 h, 1.0 µM): 100.2 ± 6.6 % of control | cell viability (HaCaT keratinocytes; 24 h, 10.0 µM): 94.7 ± 5.0 % of control | cell viability (HaCaT keratinocytes; 24 h, 100.0 µM): 49.5 ± 6.0 % of control | cell viability (HaCaT keratinocytes; 48 h, 1.0 µM): 96.4 ± 1.4 % of control | cell viability (HaCaT keratinocytes; 48 h, 10.0 µM): 72.1 ± 11.1 % of control | cell viability (HaCaT keratinocytes; 48 h, 100.0 µM): 51.5 ± 2.1 % of control | cell viability ([9]; 24 h, 1.0 µM): 90.8 ± 7.8 % of control | cell viability ([9]; 24 h, 10.0 µM): 88.6 ± 5.2 % of control | cell viability ([9]; 24 h, 100.0 µM): 47.0 ± 3.2 % of control | cell viability ([9]; 48 h, 1.0 µM): 98.0 ± 4.0 % of control | cell viability ([9]; 48 h, 10.0 µM): 96.8 ± 2.1 % of control | cell viability ([9]; 48 h, 100.0 µM): 73.5 ± 1.1 % of control | cell viability ([10]; MDA-MB-231, 24 h, 1.0 µM): 94.8 ± 4.2 % of control | cell viability ([10]; MDA-MB-231, 24 h, 10.0 µM): 102.7 ± 4.9 % of control | cell viability ([10]; MDA-MB-231, 24 h, 100.0 µM): 63.1 ±1.6 % of control | cell viability ([10]; MDA-MB-231, 48 h, 1.0 µM): 94.3 ± 3.9 % of control | cell viability ([10]; MDA-MB-231, 48 h, 10.0 µM): 91.8 ± 7.5 % of control | cell viability ([10]; MDA-MB-231, 48 h, 100.0 µM): 47.1 ± 6.2 % of control | IC50 at 24 h ([11]; HaCaT keratinocytes, 24 h): ≥ 100 µM | IC50 at 48 h ([11]; HaCaT keratinocytes, 48 h): ≥ 100 µM | IC50 at 24 h ([11]; MCF-7 breast cancer cells, MCF-7, 24 h): > 100 µM | IC50 at 48 h ([11]; MCF-7 breast cancer cells, MCF-7, 48 h): > 100 µM | IC50 at 24 h ([11]; MCF-10A breast epithelial cells, MCF10A, 24 h): 93.4 ± 3.5 µM | IC50 at 48 h ([11]; MCF-10A breast epithelial cells, MCF10A, 48 h): > 100 µM | IC50 at 24 h ([11]; MDA-MB-231 breast cancer cells, MDA-MB-231, 24 h): > 100 µM | IC50 at 48 h ([11]; MDA-MB-231 breast cancer cells, MDA-MB-231, 48 h): 94.1 ± 3.2 µM

Biofilm formation, MIC50 [1]: 5.34 ± 0.50 µM | Biofilm formation, MIC50 [2]: 4.34 ± 0.32 µM | MIC50 [5]: 5.03 ± 0.77 µM (≈ 2.4 µg/mL) | MIC50 [6]: 4.52 ± 0.98 µM (≈ 2.16 µg/mL)
Structure (SMILES): CNC(C)C1CCC(N)C(OC2C(N)CC(N)C(OC3OCC(C)(O)C(NC)C3O)C2O)O1 (centres unmarked) [Gentamycin, reference compound]
